Experimental data published in ChEMBL document CHEMBL5143542, “Synthesis and biological studies of "Polycerasoidol" and "trans-δ-Tocotrienolic acid" derivatives as PPARα and/or PPARγ agonists” (Bioorg Med Chem, 2022).
The source made the active and inactive calls. The rule behind the calls is not given here.

What was measured:
Type in all cases: cell-based
[1] = molecular target: T1, Peroxisome proliferator-activated receptor gamma (Homo sapiens, UniProt P37231); test: (§1) Agonist activity at Gal4-fused human PPARgamma expressed in COS7 cells assessed as receptor transactivation at 10 uM measured after 24 hrs by luciferase/beta-galactosidase reporter gene assay relative to rosiglitazone; conditions: cos7, 24 h, 10 µM
T1 sequence (P37231 whole entry): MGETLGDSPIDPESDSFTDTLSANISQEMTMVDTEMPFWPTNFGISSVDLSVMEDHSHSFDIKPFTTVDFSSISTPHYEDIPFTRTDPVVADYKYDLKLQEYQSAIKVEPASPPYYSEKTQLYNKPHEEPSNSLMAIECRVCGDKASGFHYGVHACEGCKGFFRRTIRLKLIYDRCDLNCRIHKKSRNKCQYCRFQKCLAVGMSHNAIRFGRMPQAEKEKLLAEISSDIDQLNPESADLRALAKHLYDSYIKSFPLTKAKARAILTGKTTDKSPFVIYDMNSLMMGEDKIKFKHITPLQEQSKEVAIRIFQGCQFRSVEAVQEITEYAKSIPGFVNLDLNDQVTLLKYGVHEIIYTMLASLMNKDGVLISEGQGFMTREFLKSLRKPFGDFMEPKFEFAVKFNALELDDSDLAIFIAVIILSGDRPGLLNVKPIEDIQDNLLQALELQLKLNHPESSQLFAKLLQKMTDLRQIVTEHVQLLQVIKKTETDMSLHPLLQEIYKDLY

[2] = molecular target: T2, Peroxisome proliferator-activated receptor alpha (Homo sapiens) (UniProt Q07869); test: Agonist activity at Gal4-fused human PPARalpha expressed in COS7 cells assessed as receptor transactivation at 10 uM measured after 24 hrs by luciferase/beta-galactosidase reporter gene assay relative to WY-14643; conditions: filed as agonist
T2 sequence (whole entry): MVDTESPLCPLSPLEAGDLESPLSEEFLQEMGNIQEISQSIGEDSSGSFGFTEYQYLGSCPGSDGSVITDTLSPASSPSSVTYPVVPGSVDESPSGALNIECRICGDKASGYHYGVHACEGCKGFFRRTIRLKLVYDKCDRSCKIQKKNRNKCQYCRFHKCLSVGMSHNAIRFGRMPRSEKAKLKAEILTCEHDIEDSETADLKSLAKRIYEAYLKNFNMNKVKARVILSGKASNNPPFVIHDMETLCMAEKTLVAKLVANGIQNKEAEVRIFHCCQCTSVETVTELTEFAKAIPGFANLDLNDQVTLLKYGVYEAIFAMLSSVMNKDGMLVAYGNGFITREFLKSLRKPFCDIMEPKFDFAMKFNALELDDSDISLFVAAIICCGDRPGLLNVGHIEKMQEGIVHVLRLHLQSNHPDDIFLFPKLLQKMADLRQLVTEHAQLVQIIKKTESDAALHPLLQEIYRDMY

[3] = molecular target: T3, Peroxisome proliferator-activated receptor gamma (Homo sapiens) (UniProt P37231); test: Partial agonist activity at Gal4-fused human PPARgamma expressed in COS7 cells assessed as receptor transactivation at 10 uM measured after 24 hrs by luciferase/beta-galactosidase reporter gene assay; conditions: filed as partial agonist
T3 sequence (whole entry): T1 sequence (P37231 whole entry)

PPARgamma = molecular target: T4, PPARgamma (Homo sapiens, UniProt P37231); test: as §1; conditions: COS7 cells expressing Gal4-fused human PPARgamma, read-out: max activation
T4 sequence (P37231 whole entry): T1 sequence (P37231 whole entry)

SMILES	Activity [1]	Activity [2]	Activity [3]	Emax at 24 h, 10 µM (PPARgamma) [%]	max activation [2] [%]
CCCOc1ccc2c(c1)CCC(C)(CC/C=C(\C)CCC(=O)OCC)O2 (stereo unspecified)	Active	Active	–	–	–
CCCOc1ccc2c(c1)CCC(C)(CC/C=C(\C)CC/C=C(\C)CC/C=C(\C)C(=O)Nc1ccccc1)O2 (stereo unspecified)	Active	Active	–	–	–
CCCOc1ccc2c(c1)CCC(C)(CC/C=C(\C)CC/C=C(\C)CC/C=C(\C)C(=O)OCC)O2 (stereo unspecified)	Active	Active	–	–	–
C/C(=C\CCC1(C)CCc2cc(OCc3ccccc3)ccc2O1)CC/C=C(\C)C(=O)Nc1ccccc1 (stereo unspecified)	–	–	Active	–	–
C/C(=C\CC[C@]1(C)CCc2cc(O)cc(C)c2O1)CC/C=C(\C)C(=O)O	–	–	–	95	107
C/C(=C\CCC1(C)CCc2cc(OCc3ccccc3)ccc2O1)CCC(=O)Nc1ccccc1 (stereo unspecified)	Active	Active	–	–	–
CCCOc1ccc2c(c1)CCC(C)(CC/C=C(\C)CCC(=O)Nc1ccccc1)O2 (stereo unspecified)	Active	Active	–	–	–
CCOC(=O)CC/C(C)=C/CCC1(C)CCc2cc(OCc3ccccc3)ccc2O1 (stereo unspecified)	–	–	–	38	123
CCCOc1ccc2c(c1)CCC(C)(CC/C=C(\C)CC/C=C(\C)C(=O)OCC)O2 (stereo unspecified)	Active	–	–	–	–
